Experimental data reported in patent US20070142396A1, “Treatment of pain with 1-[3-[4-(3-chlorophenyl)-1-piperazinyl]propyl]-5-methoxy-3,4-dihydro-2(1H)-quinolone or salt thereof” (Vela Pharmaceuticals, Inc., priority 2005, published 2007).

Columns and labels:
Format in all cases: in vivo, rat
[1] = tested on: rats with spinal nerve ligature (Chung neuropathic pain model); experiment: Chung spinal nerve ligation (L5 and L6) neuropathic pain model, tactile stimulation with electronic Von Frey probe (Example 2)
Excerpt: (§1) The Chung neuropathic pain model (Kim and Chung, Pain, 50: 355-363, 1992), employs spinal nerve ligation (SNL) in a rat. Tight ligature of spinal nerves in a rat is associated with hyperalgesia, allodynia and spontaneous pain. Antihyperalgesics reduce these chronic signs of pain hypersensitivity. Thus, the Chung model permits testing of the antihyperalgesic activity of compounds in rats with neuropathic pain. The Chung model constitutes a model for peripheral neuropathic pain in humans, and was employed as follows.
(§2) Male Rj: Wistar (Han) rats, weighing 264-369 g at the beginning of the experiment, were obtained from Elevage Janvier, 53940 Le Genest-Saint-Isle, France. The rats were acclimatized to laboratory conditions for at least 5 days before the surgery phase of the experiment. The rats were housed in groups of five in macrolon cages (41×25×14 cm) on wood litter (Litalabo—SPPS, 95100 Argenteuil, France) with free access to food (code 113—SAFE, 91360 Epinay-sur-Orge, France) and water until tested. The animal houses were maintained under artificial lighting (12 hours) between 7:00 AM and 7:00 PM in a controlled ambient temperature of 21±3° C., and with relative humidity maintained at 40-70%.
(§3) Rats (264-369 g) were anesthetized with sodium pentobarbital (50 mg/kg i.p.), and an incision at the L4-S2 level was made to expose the left L5 and L6 spinal nerves. A ligature was tied tightly around each nerve. The wound was then sutured. The rats received an i.m. injection of 50,000 IU penicillin G and were allowed to recover. At least 2 weeks after the surgery, when the chronic state was fully installed, rats were submitted consecutively to tactile and thermal stimulation of both the non-lesioned and the lesioned hindpaws.
(§4) Doses of OPC-14523 were prepared in stock solutions (weight per volume, W/V), then in dilutions (volume per volume, V/V), as appropriate. The compound was dispersed in 0.5% tragacanth in distilled water. Morphine was dissolved in physiological saline as a reference standard for treatment of pain. The solutions for the test and reference substances were prepared fresh on the day of the experiment.
(§5) The vehicle, OPC-14523, and reference (morphine) compound were each administered in a volume of 5 ml/kg body weight. The doses of OPC-14523 were expressed in mg of substance per kg body weight and administered orally (p.o.). The vehicle control was also administered orally. The dose of morphine was expressed in mg of hydrochloride salt per kg body weight and administered i.p.
(§6) Each animal was tested at 30 minutes, 1 hour, 2 hours and 4 hours after the administration of a substance. Testing occurred in the morning.
(§7) To evaluate chronic drug administration and hypersensitivity induction, animals received a second substance treatment in the afternoon, after acute testing. The animals then received twice-daily substance treatment for an additional 9 days. To test for induction of hypersensitivity, the animals were tested, on the ninth day, 30 minutes before the first substance administration in the morning. The effect of chronic administration was tested on the tenth day 30 minutes, 1 hour, 2 hours and 4 hours after the administration of the substance in the morning.
(§8) For tactile stimulation, the animal was placed under an inverted Plexiglas® box (17×11×14 cm) on a grid floor. The tip of an electronic Von Frey probe (Bioseb, Model 1610, Chaville, France) was applied with increasing pressure to the non-lesioned hindpaw or the lesioned hindpaw. The force required to induce paw withdrawal was automatically recorded. This procedure was carried out three times for each paw, and the mean force per paw was calculated to provide basic scores per animal.
Prior to receiving drug treatment, all animals were submitted to tactile stimulation and assigned to treatment groups, matched on the basis of their pain response. Each treatment group consisted of eight rats. The testing was performed blind. […]

[2] = tested on: rats with spinal nerve ligature (Chung neuropathic pain model); experiment: Chung neuropathic pain model, cold allodynia on cold plate (Example 3); conditions: morphine 128 mg/kg p.o.; for change of total number of paw withdrawal responses: cold plate
Excerpt: (§9) The rats used in this experiment were the same rats used in Example 2. The materials and methods for this experiment were identical to those for Example 2 with the following exceptions: there was a 1-week washout between the two experiments, and the rats weighed 290-403 g at the start of this experiment. Prior to receiving drug treatment, all animals were submitted to tactile stimulation and assigned to treatment groups matched on the basis of their pain response. No account was taken of the treatment administered during the first experiment in assigning animals to treatment groups for this experiment.
(§10) All of the substances were administered orally. Morphine, dissolved in distilled water, was administered at 128 mg/kg dose p.o. Rats were tested 30 minutes, 1 hour, 2 hours, and 4 hours after administration of the substances.
Behavioral testing was carried out by measuring cold allodynia using an apparatus consisting of a cold plate maintained at 4±1° C. Rats were individually placed on the cold plate for a period of 5 minutes. The latency to the first paw withdrawal response and the number and total duration of withdrawal responses in 5 minutes were recorded for both the lesioned and the non-lesioned hindpaws.

[3] = tested on: rats with spinal nerve ligature (Chung neuropathic pain model); experiment: Chung spinal nerve ligation (L5 and L6) neuropathic pain model, thermal stimulation (Example 2); conditions: for change of paw-withdrawal latency vs vehicle: morphine 16 mg/kg i.p.
Excerpt: as §1, §2, §3, §4, §5, §6, §7
An apparatus (Ugo Basile, Product reference: 7371, Comerio, Italy) consisted of six individual Plexiglas® boxes (17×11×14 cm) placed upon an elevated glass floor. A rat was placed in the box and left free to habituate for 10 minutes. Then, a mobile infrared radiant source was focused under the non-lesioned and lesioned hindpaws. The paw-withdrawal latencies were automatically recorded. Paw withdrawal interrupts the reflected radiation and switches off the counter and the light source. In order to prevent tissue damage, the test was terminated after 45 seconds if no reaction was noted.
Prior to receiving drug treatment, all animals were submitted to tactile stimulation and assigned to treatment groups, matched on the basis of their pain response. […]

[4] = tested on: rats with spinal nerve ligature (Chung neuropathic pain model); experiment: Chung neuropathic pain model, tactile stimulation, second experiment (Example 3); conditions: acute, morphine 128 mg/kg p.o.; for change of force inducing paw withdrawal vs vehicle: lesioned paw
Description: as §8, §9, §10

[5] = hypersensitivity test after 8 days of twice daily administration, morphine

## CN1CC[C@]23c4c5ccc(O)c4O[C@H]2[C@@H](O)C=C[C@H]3[C@H]1C5 [Morphine, morphine, reference compound]
[1]; acute, morphine 16 mg/kg i.p., lesioned paw, 30 minutes
  change of force inducing paw withdrawal vs vehicle: +206%
[1]; acute, morphine 16 mg/kg i.p., lesioned paw, 1 hour
  change of force inducing paw withdrawal vs vehicle: +124%
[1]; acute, morphine 16 mg/kg i.p., lesioned paw, 2 hours
  effect on force inducing paw withdrawal: tended to increase
[1]; acute, morphine 16 mg/kg i.p., non-lesioned paw
  effect on force inducing paw withdrawal: no effects
[1]; chronic, day 10, morphine, lesioned paw, 30 minutes, p<0.01
  change of force inducing paw withdrawal vs vehicle: +86%
[1]; chronic, day 10, morphine, lesioned paw, 1 hour, p<0.001
  change of force inducing paw withdrawal vs vehicle: +223%
[1]; chronic, day 10, morphine, lesioned paw, 2 hours, p=0.09
  change of force inducing paw withdrawal vs vehicle: −50%
[1]; chronic, day 10, morphine, non-lesioned paw
  effect on force inducing paw withdrawal: weak, variable effects
[1]; [5]
  Force Inducing Paw Withdrawal (g) Lesioned Paw: 15.1 (NS) g
  Force Inducing Paw Withdrawal (g) Non-lesioned Paw: 73.7 (NS) g
[1]; hypersensitivity test, repeated treatment with morphine, lesioned or non-lesioned paw
  effect on force inducing paw withdrawal vs vehicle control: no significant effects
[2]; cold plate 4°C, not statistically significant
  effect on paw-withdrawal latency of the first withdrawal: tended to increase
[2]; 30 minutes, p<0.001
  change of total number of paw withdrawal responses: −61%
[2]; 1 hour, p<0.05
  change of total number of paw withdrawal responses: −65%
[2]; 2 hours, p<0.01
  change of total number of paw withdrawal responses: −51%
[2]; 4 hours, p<0.01
  change of total number of paw withdrawal responses: −56%
[3]; acute, lesioned paw, 30 minutes
  change of paw-withdrawal latency vs vehicle: +132%
[3]; acute, lesioned paw, 1 hour
  change of paw-withdrawal latency vs vehicle: +121%
[3]; acute, lesioned paw, 4 hours
  change of paw-withdrawal latency vs vehicle: +204%
[3]; acute, non-lesioned paw, 30 minutes, p<0.05
  change of paw-withdrawal latency vs vehicle: +15%
[3]; chronic, lesioned paw, 30 minutes, p<0.05
  change of paw-withdrawal latency vs vehicle: +108%
[3]; chronic, lesioned paw, 1 hour, p<0.05
  change of paw-withdrawal latency vs vehicle: 93%
[3]; chronic, non-lesioned paw, 2 hours, p<0.05
  change of paw-withdrawal latency vs vehicle: −24%
[3]; chronic, non-lesioned paw, 4 hours, p<0.05
  change of paw-withdrawal latency vs vehicle: −23%
[3]; [5]
  Paw Withdrawal Latency (s) Lesioned Paw: 11.7 (NS) s
  Paw Withdrawal Latency (s) Non-lesioned Paw: 34.5 (NS) s
[4]; 30 minutes, p<0.05
  change of force inducing paw withdrawal vs vehicle: +137%
[4]; 1 hour, p<0.01
  change of force inducing paw withdrawal vs vehicle: +198%
[4]; 2 hours, p=0.05
  change of force inducing paw withdrawal vs vehicle: +168%
[4]; non-lesioned paw
  effect on force inducing paw withdrawal: no effects
